Source: patent publication US20210379100A1, “USE OF FUNCTIONALIZED CALCIUM CARBONATE AS ACTIVE INGREDIENT” (OMYA INTERNATIONAL AG, priority 2018, published 2021)

Assay: Particle size distribution (Malvern Mastersizer 3000 laser diffraction / Sedigraph sedimentation)
Type: physicochemical
Source text: The “particle size” of all particulate materials disclosed herein, with the exception of ground calcium carbonate and precipitated calcium carbonate, is described as volume-based particle size distribution dx(vol). Therein, the value dx(vol) represents the diameter relative to which x % by volume of the particles have diameters less than dx(vol). This means that, for example, the d20(vol) value is the particle size at which 20 vol % of all particles are smaller than that particle size. The d50(vol) value is thus the volume median particle size, i.e. 50 vol % of all particles are smaller than that particle size and the d98(vol) value, referred to as volume-based top cut, is the particle size at which 98 vol % of all particles are smaller than that particle size. […]
All particle sizes described herein, with the exception of the particle sizes of the ground calcium carbonate that was used for the production of the functionalized calcium carbonate and that of precipitated calcium carbonate, refer to the volume-based particle size distribution dx(vol). The volume-based median particle size d50(vol) and top cut d98(vol) are evaluated using a Malvern Mastersizer 3000 Laser Diffraction System (Malvern Instruments Plc., Great Britain). The raw data obtained by the measurement is analyzed using the Fraunhofer theory. […]

SMILES: O.O.O.O.O=C([O-])CC(O)(CC(=O)[O-])C(=O)[O-].O=C([O-])CC(O)(CC(=O)[O-])C(=O)[O-].[Ca+2].[Ca+2].[Ca+2] [Calcium citrate tetrahydrate]
- d50 (median particle size): 6.83 μm
- d98 (top cut particle size): 80 μm
